This is an account of results in article PMC4055767, “Selective Chemical Inhibition of agr Quorum Sensing in Staphylococcus aureus Promotes Host Defense with Minimal Impact on Resistance” (PLoS Pathogens, 2014).

Each structure is given as a SMILES string.

In one experiment the target is T1, AgrA (Staphylococcus aureus, UniProt P0A0I7).
T1 construct: plasmid-encoded AgrA (pCM63) in S. aureus Δagr reporter strain AH3048
In words: AgrA-dependent agr::P3 lux reporter in agr-null S. aureus ([…]), positive control. It is filed as cell-based.

In experiment [1] the target is AgrA (AgrAC, C-terminal DNA binding domain) (Staphylococcus aureus, UniProt P0A0I7). In words: EMSA with purified AgrAC and FAM-labeled […] bp DNA duplex; supported by AgrA-driven agr::P3 lux reporter in agr-null S. aureus.
Sequence of AgrA (AgrAC, C-terminal DNA binding domain) (P0A0I7 137-238): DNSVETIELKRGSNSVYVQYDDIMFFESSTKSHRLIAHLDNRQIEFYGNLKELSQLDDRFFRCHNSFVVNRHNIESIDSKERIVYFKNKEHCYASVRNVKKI

T1 sequence (P0A0I7 whole entry): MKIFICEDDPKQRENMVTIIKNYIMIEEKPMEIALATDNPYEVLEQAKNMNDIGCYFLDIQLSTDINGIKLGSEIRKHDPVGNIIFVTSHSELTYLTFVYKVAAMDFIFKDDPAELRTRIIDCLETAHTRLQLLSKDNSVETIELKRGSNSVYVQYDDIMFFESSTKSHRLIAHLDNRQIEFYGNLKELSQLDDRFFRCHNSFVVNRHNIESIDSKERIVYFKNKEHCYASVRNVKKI

As to `O=C(O)c1cc(-c2ccc(F)cc2F)ccc1O` [diflunisal], the “AgrA-dependent agr::P3 lux reporter in agr-null S. aureus (1.56-100 μM), positiv” value at AgrA was “diflunisal and 4-phenoxyphenol, compounds published by others as inhibitors of AgrAc DNA binding ability”.

Regarding `CC(C)c1ccc(S(=O)(=O)c2n[nH]n3c2nc(=O)c2ccccc23)cc1` [savirin, 3-(4-propan-2-ylphenyl) sulfonyl-1H-triazolo [1,5-a] quinazolin-5-one], in experiment [1], the IC50 (commonly the point on the concentration scale where inhibition reaches its midpoint) turned out to be 83 µM.
